Assay results reported in PubChem BioAssay (NCI).
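These data come from cells grown in 96-well plates and exposed to compound for 48 hours at five concentrations. The concentration for 50% growth inhibition is given as GI50. TGI: total growth inhibition.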

Assays:
Test in all cases: NCI anticancer screen, dose series, 48 h; in the data active = GI50 below about 0.43 µM; inactive = the rest
[1] = system: NCI-H522 lung
[2] = system: SR leukemia
[3] = system: IGROV1 ovarian
[4] = system: DLD-1 colon
[5] = system: UACC-257 melanoma
[6] = system: LOX IMVI melanoma
[7] = system: CAKI-1 renal
[8] = system: SF-539 CNS
[9] = system: OVCAR-5 ovarian
[10] = system: HCT-116 colon
[11] = system: COLO 205 colon
[12] = system: U251 CNS
[13] = system: OVCAR-8 ovarian
[14] = system: OVCAR-4 ovarian
[15] = system: HCC-2998 colon
[16] = system: HOP-92 NSCLC
[17] = system: UACC-62 melanoma
[18] = system: HT29 colon
[19] = system: LXFL 529 NSCLC
[20] = system: A498 renal
[21] = system: ACHN renal
[22] = system: KM20L2 colon
[23] = system: SF-295 CNS
[24] = system: SK-MEL-28 melanoma
[25] = system: DMS 114 small cell lung
[26] = system: MOLT-4 leukemia
[27] = system: TK-10 renal
[28] = system: HOP-18 NSCLC
[29] = system: SNB-75 CNS
[30] = system: A549 NSCLC
[31] = system: SK-OV-3 ovarian
[32] = system: SNB-19 CNS
[33] = system: SK-MEL-5 melanoma
[34] = system: M19-MEL melanoma
[35] = system: 786-0 renal
[36] = system: DMS 273 small cell lung
[37] = system: UO-31 renal
[38] = system: KM12 colon
[39] = system: SW-620 colon
[40] = system: SK-MEL-2 melanoma
[41] = system: CCRF-CEM leukemia
[42] = system: SN12C renal
[43] = system: HOP-62 NSCLC
[44] = system: M14 melanoma
[45] = system: OVCAR-3 ovarian
[46] = system: MALME-3M melanoma
[47] = system: SNB-78 CNS
[48] = system: HL-60(TB) leukemia
[49] = system: NCI-H460 lung
[50] = system: SF-268 CNS
[51] = system: NCI-H23 lung
[52] = system: HCT-15 colon
[53] = system: EKVX NSCLC
[54] = system: K-562 leukemia
[55] = system: MDA-N
[56] = system: MDA-MB-231 breast
[57] = system: PC-3 prostate
[58] = system: RPMI-8226 leukemia
[59] = system: MCF7 breast
[60] = system: RXF 393 renal
[61] = system: MDA-MB-435
[62] = system: NCI/ADR-RES ovarian
[63] = system: DU-145 prostate
[64] = system: T-47D breast
[65] = system: NCI-H226 lung
[66] = system: HS 578T breast
[67] = system: BT-549 breast

CCC1(N=[N+]=[N-])C(=O)c2ccccc2N(C)C1=O (centres undefined)
> 100 µM: TGI [1] | TGI [2] | TGI [3] | TGI [4] | TGI [5] | TGI [6] | TGI [7] | TGI [8] | TGI [9] | TGI [10] | TGI [11] | TGI [12] | TGI [13] | TGI [14] | TGI [15] | TGI [16] | TGI [17] | TGI [18] | TGI [19] | TGI [20] | TGI [21] | TGI [22] | TGI [23] | TGI [24] | TGI [25] | TGI [26] | TGI [27] | TGI [28] | TGI [29] | TGI [30] | TGI [31] | TGI [32] | TGI [33] | TGI [34] | TGI [35] | TGI [36] | TGI [37] | TGI [38] | TGI [39] | TGI [40] | TGI [41] | TGI [42] | TGI [43] | TGI [44] | TGI [45] | TGI [46] | TGI [47] | TGI [48] | TGI [49] | TGI [50] | TGI [51] | TGI [52] | TGI [53] | TGI [54]

COc1ccc(C2OC(=O)c3ccc4ccccc4c32)c(C)c1 (centres undefined)
> 67.8 µM: TGI [3]
> 72.9 µM: TGI [39]
40.5 µM: TGI [8]
> 60.5 µM: TGI [52]
> 45.7 µM: TGI [10]
> 65.4 µM: TGI [58]
> 45.6 µM: TGI [38]
4.28 µM: TGI [55]
45.2 µM: TGI [66]
14.7 µM: TGI [23]
29.9 µM: TGI [59]
66.2 µM: TGI [20]
53.1 µM: TGI [45]
> 100 µM: TGI [56] | TGI [57] | TGI [5] | TGI [6] | TGI [7] | TGI [9] | TGI [14] | TGI [17] | TGI [21] | TGI [30] | TGI [32] | TGI [63] | TGI [41] | TGI [42] | TGI [46] | TGI [50] | TGI [67]
> 83.8 µM: TGI [37]
12.3 µM: TGI [15]
30.6 µM: TGI [12]
15.1 µM: TGI [18]
> 89.8 µM: TGI [16]
5.61 µM: TGI [62]
60.1 µM: TGI [31]
17.6 µM: TGI [33]
> 24.6 µM: TGI [48]
> 89.7 µM: TGI [2]
> 95.3 µM: TGI [27]
44.7 µM: TGI [29]
> 71.3 µM: TGI [24]
> 39.8 µM: TGI [26]
6.02 µM: TGI [61]
> 90.2 µM: TGI [43]
18.4 µM: TGI [40]
> 65.9 µM: TGI [60]
> 35.1 µM: TGI [11]
54 µM: TGI [35]
> 86 µM: TGI [64]
> 38 µM: TGI [44]
> 87.8 µM: TGI [53]
56.9 µM: TGI [65]
> 54.3 µM: TGI [49]
56.5 µM: TGI [13]
41.8 µM: TGI [51]
> 75.7 µM: TGI [54]
20.9 µM: TGI [1]

Cc1nn[n-]n1.N.N.N.N.N.[Cl-].[Co+3]
inactive: GI50 [2] > 100 µM | GI50 [3] > 100 µM | GI50 [58] > 100 µM | GI50 [4] > 100 µM | GI50 [5] > 100 µM | GI50 [6] > 100 µM | GI50 [7] > 100 µM | GI50 [8] > 100 µM | GI50 [9] > 100 µM | GI50 [10] > 100 µM | GI50 [11] > 100 µM | GI50 [12] > 100 µM | GI50 [13] > 100 µM | GI50 [14] > 100 µM | GI50 [15] > 100 µM | GI50 [60] > 100 µM | GI50 [16] > 100 µM | GI50 [17] > 100 µM | GI50 [18] > 100 µM | GI50 [19] > 100 µM | GI50 [21] > 100 µM | GI50 [22] > 100 µM | GI50 [23] > 100 µM | GI50 [24] > 100 µM | GI50 [26] > 100 µM | GI50 [27] > 100 µM | GI50 [28] > 100 µM | GI50 [29] > 100 µM | GI50 [30] > 100 µM | GI50 [31] > 100 µM | GI50 [32] > 100 µM | GI50 [33] > 100 µM | GI50 [35] > 100 µM | GI50 [36] > 100 µM | GI50 [37] > 100 µM | GI50 [38] > 100 µM | GI50 [39] > 100 µM | GI50 [40] > 100 µM | GI50 [41] > 100 µM | GI50 [42] > 100 µM | GI50 [43] > 100 µM | GI50 [44] > 100 µM | GI50 [65] > 100 µM | GI50 [45] > 100 µM | GI50 [46] > 100 µM | GI50 [47] > 100 µM | GI50 [48] > 100 µM | GI50 [49] > 100 µM | GI50 [50] > 100 µM | GI50 [51] > 100 µM | GI50 [52] > 100 µM | GI50 [53] > 100 µM | GI50 [54] > 100 µM
> 100 µM: TGI [2] | TGI [3] | TGI [58] | TGI [4] | TGI [5] | TGI [6] | TGI [7] | TGI [8] | TGI [9] | TGI [10] | TGI [11] | TGI [12] | TGI [13] | TGI [14] | TGI [15] | TGI [60] | TGI [16] | TGI [17] | TGI [18] | TGI [19] | TGI [21] | TGI [22] | TGI [23] | TGI [24] | TGI [26] | TGI [27] | TGI [28] | TGI [29] | TGI [30] | TGI [31] | TGI [32] | TGI [33] | TGI [35] | TGI [36] | TGI [37] | TGI [38] | TGI [39] | TGI [40] | TGI [41] | TGI [42] | TGI [43] | TGI [44] | TGI [65] | TGI [45] | TGI [46] | TGI [47] | TGI [48] | TGI [49] | TGI [50] | TGI [51] | TGI [52] | TGI [53] | TGI [54]
